Data set [1] can be described thus: Shake flask solubility measurement. To be noted: shaken at 37° C. for 24 h; for solubility at 24 h: sodium phosphate/sodium chloride buffer, aqueous buffer, thermodynamic from solid. The data set is classed as physicochemical. The method, then:
Determination by Shake Flask Solubility Measurement
• Eluent A: 2 ml of diethylamine, for synthesis+1000 ml of methanol, LiChrosolv • Eluent B: 5 g of ammonium acetate, for analysis+5 ml of methanol, LiChrosolv+995 ml of ultrapure water Sample Solvent:
Buffer: 3.954 g of sodium dihydrogenphosphate monohydrate+6.024 g of sodium chloride+950 ml of ultrapure water the pH is adjusted using 0.1 M NaOH or 0.1 M HCl.
The samples are shaken at 37° C. and 450 rpm for 24 h.
After about 7 h, the pH of the samples is checked and adjusted if necessary. It is also checked whether the sample is still present in excess.
Just before the end of the 24 h shaking time, the samples are again checked for pH and a precipitate.

The next data set deals with MetAP-2 (Homo sapiens, UniProt P50579). Kind of data set: MetAP-2 activity measurement (coupled enzymatic reactions, substrate Met-Arg-Ser, photometric at 450 nm). The data set is classed as biochemical. The note with it: read-out: IC50 enzyme (Inhibition of MetAP-2). An outline of the steps:
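Human MetAP-2 cleaves Met-Arg-Ser; the freed methionine is oxidized by L-amino acid oxidase, and the resulting H2O2 drives peroxidase oxidation of dianisidine, read continuously at 450 nm. Activity is taken as the slope in the visually linear region.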

Drawing on patent US8846694B2, “Pyrrolidone derivatives for use as MetAP-2 inhibitors” (Merck Patent GmbH, priority 2008, dated 2014), this text covers solubility, melting point and IC50 for 27 compounds.

≈ marks a conversion by molar mass, not a printed value. Bounds are passed on as bounds.

Chain of MetAP-2 (P50579 whole entry, species assumed): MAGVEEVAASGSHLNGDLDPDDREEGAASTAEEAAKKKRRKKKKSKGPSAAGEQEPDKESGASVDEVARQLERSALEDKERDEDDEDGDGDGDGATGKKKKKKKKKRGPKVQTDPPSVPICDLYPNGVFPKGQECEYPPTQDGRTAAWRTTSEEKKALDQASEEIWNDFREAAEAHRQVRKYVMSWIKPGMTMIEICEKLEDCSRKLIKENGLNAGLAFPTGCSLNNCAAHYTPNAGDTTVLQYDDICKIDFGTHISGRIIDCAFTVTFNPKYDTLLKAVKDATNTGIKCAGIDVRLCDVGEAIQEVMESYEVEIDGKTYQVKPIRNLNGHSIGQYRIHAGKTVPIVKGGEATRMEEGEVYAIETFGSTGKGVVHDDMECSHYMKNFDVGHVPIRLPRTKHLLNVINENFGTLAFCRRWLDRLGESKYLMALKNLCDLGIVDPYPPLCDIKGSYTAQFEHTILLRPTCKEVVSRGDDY

Broadly, the solubility is how much of the substance goes into solution per volume. A low value points to little dissolved substance. For the compound `CC(O)CNC(=O)c1cc(OC[C@H]2CCCN2c2ncnc3[nH]cnc23)c2ccccc2n1` (some centres unmarked), the solubility in data set [1] (shake flask, buffer) stood at 325 µg/mL (≈ 726 µM).
A word on the melting point: it is the temperature of the solid-liquid transition. `O=C(c1ccc(CCC2CCCN2c2ncnc3[nH]cnc23)c2ccccc12)N1CCOCC1` (racemic) [A6, morpholin-4-yl-(4-{2-[-1-(9H-purin-6-yl)pyrrolidin-2-yl]ethyl}naphthalen-1-yl)methanone] displayed a melting point of 158 to 160 °C.
`Clc1cccc(OC[C@H]2CCCN2c2ncnc3[nH]cnc23)c1Cl` [6-[(R)-2-(2,3-dichlorophenoxymethyl)pyrrolidin-yl]-9H-purine, reference compound] came in with a solubility in data set [1] (shake flask, buffer) below 1 µg/mL.
In turn, `c1ccc2c(OC[C@H]3CCCN3c3ncnc4[nH]cnc34)ccc(CNCCN3CCOCC3)c2c1` [(2-morpholin-4-ylethyl)-{4-[(R)-1-(9H-purin-6-yl)pyrrolidin-2-ylmethoxy]naphthalen-1-ylmethyl}amine] displayed a solubility at 24 h in data set [1] (buffer system at pH 7) of 283 µg/mL (≈ 580 µM).
What is called IC50 is the midpoint of a concentration-inhibition curve. In turn, `O=Cc1ccc(OC[C@H]2CCCN2c2ncnc3[nH]cnc23)c2ccccc12` [A2, 4-[(R)-1-(9H-purin-6-yl)pyrrolidin-2-ylmethoxy]naphthalene-1-carbaldehyde] had a melting point of 167 to 168 °C. Besides, the 50% inhibitory concentration (IC50) on MetAP-2 was 10 to 1000 nM.
In the same order, the values of `F[C@H]1C[C@H](COc2ccccc2Cl)N(c2ncnc3[nH]cnc23)C1` [A7, 6-[(2R,4S)-2-(2-chlorophenoxymethyl)-4-fluoropyrrolidin-1-yl]-9H-purine] are 143 to 144 °C and 1000 to 10000 nM.
With `O=C1OCCC1CCOc1ccc2cccc(OC[C@H]3CCCN3c3ncnc4[nH]cnc34)c2c1` (stereo partly drawn) [A186, 3-(2-{8-[(R)-1-(9H-Purin-6-yl)pyrrolidin-2-yl-methoxy]naphthalen-2-yloxy}ethyl)dihydrofuran-2-one], on MetAP-2, the IC50 fell in the range of 1000 to 10000 nM.
On to `CC(C)(C)OC(=O)N[C@@H](CCC(N)=O)C(=O)N1CCc2cccc(OC[C@H]3CCCN3c3ncnc4[nH]cnc34)c2C1` [A187, tert-Butyl ((S)-3-carbamoyl-1-{8-[(R)-1-(9H-purin-6-yl)pyrrolidin-2-ylmethoxy]-3,4-dihydro-1H-isoquinoline-2-carbonyl}propyl)carbamate], for which the IC50 at MetAP-2 was 1000 to 10000 nM.
Same read-out and setting: then `CC(C)(C)OC(=O)N[C@H](CC(N)=O)C(=O)N1CCc2cccc(OC[C@H]3CCCN3c3ncnc4[nH]cnc34)c2C1` [A188, tert-Butyl ((R)-1-carbamoylmethyl-2-oxo-2-{8-[(R)-1-(9H-purin-6-yl)pyrrolidin-2-ylmethoxy]-3,4-dihydro-1H-isoquinolin-2-yl}ethyl)carbamate], with 1000 to 10000 nM; and `CC(C)(C)OC(=O)N[C@@H](Cc1c[nH]cn1)C(=O)N1CCc2cccc(OC[C@H]3CCCN3c3ncnc4[nH]cnc34)c2C1` [A189, tert-Butyl ((S)-1-(1H-imidazol-4-ylmethyl)-2-oxo-2-{8-[(R)-1-(9H-purin-6-yl)pyrrolidin-2-yl-methoxy]-3,4-dihydro-1H-isoquinolin-2-yl}ethyl)-carbamate], with 1000 to 10000 nM.
Same read-out and setting: to `Cn1c(C(=O)O)c(OC[C@H]2CCCN2c2ncnc3[nH]cnc23)c2cc(F)ccc21` [A190, 5-Fluoro-1-methyl-3-[(R)-1-(9H-purin-6-yl)-pyrrolidin-2-ylmethoxy]-1H-indole-2-carboxylic acid] belongs above 10000 nM.
Same read-out and setting: then `c1ccc2c(OC[C@H]3CCCN3c3ncnc4[nH]cnc34)cc(CNCCN3CCOCC3)nc2c1` [A191, (2-Morpholin-4-ylethyl)-{4-[(R)-1-(9H-purin-6-yl)pyrrolidin-2-ylmethoxy]quinolin-2-yl-methyl}amine], with 10 to 1000 nM; and `O=C1CC[C@@H](C(=O)N2CCc3cccc(OC[C@H]4CCCN4c4ncnc5[nH]cnc45)c3C2)N1` [A192, (S)-5-{8-[(R)-1-(9H-Purin-6-yl)pyrrolidin-2-yl-methoxy]-3,4-dihydro-1H-isoquinoline-2-carbonyl}pyrrolidin-2-one], with 10 to 1000 nM; and `CC(C)(C)OC(=O)NCCCC[C@H](NC(=O)OCc1ccccc1)C(=O)N1CCc2cccc(OC[C@H]3CCCN3c3ncnc4[nH]cnc34)c2C1` [A193, tert-Butyl ((S)-5-benzyloxycarbonylamino-6-oxo-6-{8-[(R)-1-(9H-purin-6-yl)pyrrolidin-2-yl-methoxy]-3,4-dihydro-1H-isoquinolin-2-yl}hexyl)-carbamate], with above 10000 nM.
For the compound `NC(=O)C[C@@H](N)C(=O)N1CCc2cccc(OC[C@H]3CCCN3c3ncnc4[nH]cnc34)c2C1` [A194, (R)-3-Amino-4-oxo-4-{8-[(R)-1-(9H-purin-6-yl)-pyrrolidin-2-ylmethoxy]-3,4-dihydro-1H-isoquinolin-2-yl}butyramide], on MetAP-2, the IC50 lay within 10 to 1000 nM.
Still for that read-out and setting: then `N[C@@H](Cc1c[nH]cn1)C(=O)N1CCc2cccc(OC[C@H]3CCCN3c3ncnc4[nH]cnc34)c2C1` [A195, (S)-2-Amino-3-(1H-imidazol-4-yl)-1-{8-[(R)-1-(9H-purin-6-yl)pyrrolidin-2-ylmethoxy]-3,4-dihydro-1H-isoquinolin-2-yl}propan-1-one], with 10 to 1000 nM; and `O=C(O)CCCCOc1ccc2cccc(OC[C@H]3CCCN3c3ncnc4[nH]cnc34)c2c1` [A196, 5-{8-[(R)-1-(9H-Purin-6-yl)pyrrolidin-2-yl-methoxy]naphthalen-2-yloxy}pentanoic acid], with above 10000 nM.
Still for that read-out and setting: then `Cn1c(C(=O)NCc2ccc(F)cc2)c(OC[C@H]2CCCN2c2ncnc3[nH]cnc23)c2cc(F)ccc21` [A197, N-(4-Fluorobenzyl)-5-fluoro-1-methyl-3-[(R)-1-(9H-purin-6-yl)pyrrolidin-2-ylmethoxy]-1H-indole-2-carboxamide], with above 10000 nM; and `Cn1c(C(=O)OCCc2ccc(F)cc2)c(OC[C@H]2CCCN2c2ncnc3[nH]cnc23)c2cc(F)ccc21` [A198, 2-(4-Fluorophenyl)ethyl 5-fluoro-1-methyl-3-[(R)-1-(9H-purin-6-yl)pyrrolidin-2-ylmethoxy]-1H-indole-2-carboxylate], with above 10000 nM; and `NCCCC[C@H](NC(=O)OCc1ccccc1)C(=O)N1CCc2cccc(OC[C@H]3CCCN3c3ncnc4[nH]cnc34)c2C1` [A199, Benzyl ((S)-5-amino-1-{8-[(R)-1-(9H-purin-6-yl)-pyrrolidin-2-ylmethoxy]-3,4-dihydro-1H-isoquinolin-2-carbonyl}pentyl)carbamate], with 1000 to 10000 nM.
Regarding `O=C(Cn1c(C(=O)NCCc2ccc(F)cc2)c(OC[C@H]2CCCN2c2ncnc3[nH]cnc23)c2cc(F)ccc21)NCCc1ccc(F)cc1` [A200, N-[2-(4-Fluorophenyl)ethyl]-5-fluoro-1-{[2-(4-fluorophenyl)ethylcarbamoyl]methyl}-3-[(R)-1-(9H-purin-6-yl)pyrrolidin-2-ylmethoxy]-1H-indole-2-carboxamide], the IC50 at MetAP-2 was above 10000 nM.
Same read-out and setting: then `NC(=O)C[C@H](N)C(=O)N1CCc2cccc(OC[C@H]3CCCN3c3ncnc4[nH]cnc34)c2C1` [A201, (S)-3-Amino-4-oxo-4-{8-[(R)-1-(9H-purin-6-yl)-pyrrolidin-2-ylmethoxy]-3,4-dihydro-1H-isoquinolin-2-yl}butyramide], with 1000 to 10000 nM.
Same read-out and setting: then `NC(=O)CCC(=O)N1CCc2cccc(OC[C@H]3CCCN3c3ncnc4[nH]cnc34)c2C1` [A202, 4-Oxo-4-{8-[(R)-1-(9H-purin-6-yl)pyrrolidin-2-yl-methoxy]-3,4-dihydro-1H-isoquinolin-2-yl}-butyramide], with 1000 to 10000 nM; and `Fc1ccc(CCNCCn2cc(OC[C@H]3CCCN3c3ncnc4[nH]cnc34)c3cc(F)ccc32)cc1` [A203, [2-(4-Fluorophenyl)ethyl]-(2-{5-fluoro-3-[(R)-1-(9H-purin-6-yl)pyrrolidin-2-ylmethoxy]indol-1-yl}-ethyl)amine], with above 10000 nM.
The compound `O=C(c1ccc(CC[C@H]2CCCN2c2ncnc3[nH]cnc23)c2ccccc12)N1CCOCC1` [Morpholin-4-yl-(4-{2-[(S)-1-(9H-purin-6-yl)pyrrolidin-2-yl]ethyl}naphthalen-1-yl)-methanone] came in with a solubility at 24 h in data set [1] (shake flask, buffer) of 108 µg/mL (≈ 237 µM).
On the same count and under the same terms, to `CNC(=O)/C=C1/CCc2c(OC[C@H]3CCCN3c3ncnc4[nH]cnc34)cccc2C1=O` [N-methyl-2-[1-oxo-5-[(R)-1-(9H-purin-6-yl)pyrrolidin-2-ylmethoxy]-3,4-dihydro-1H-naphthalen-(2Z)-ylidene]acetamide] belongs 29 µg/mL (≈ 67.1 µM).
In data set [1] (shake flask, buffer), `O=C(O)/C=C1/CCc2c(OC[C@H]3CCCN3c3ncnc4[nH]cnc34)cccc2C1=O` [[1-oxo-5-[(R)-1-(9H-purin-6-yl)pyrrolidin-2-ylmethoxy]-3,4-dihydro-1H-naphthalen-(2Z)-ylidene]acetic acid] registered a solubility at 24 h above 3800 µg/mL.
